Test results: the supplement of paper PMC10627819

How the values were obtained:
S. pneumoniae D39V [1] = experiment: fitness (endpoint OD595 vs no drug) (fraction); higher = more growth
How it was run: (§1)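 Fitness expresses the optical density reached at the stationary-phase transition as a fraction of the robust mean of no-drug control wells. It is capped at 1. Measurements were OD595 every 30 min for 14 h at 37 °C after inoculation of 384-well plates at OD595 0.01 (30 µl, or 55 µl for S. pneumoniae), minus the first reading.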

B. subtilis 168 [2] = experiment: as above
How it was run: as §1

S. aureus Newman = experiment: Bliss interaction score (quartile over a dose matrix) (fitness difference); higher = more antagonism (negative = synergy)
How it was run: (§2)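 Quartiles summarise the Bliss score over technical, biological and donor/recipient replicates, where the score is observed minus expected fitness under a product model. Expected fitness uses single-drug values inferred from combination data. Fitness is OD595 at entry into stationary phase over the plate's robust no-drug mean, capped at 1.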

S. pneumoniae D39V [3] = experiment: as above
How it was run: as §2

B. subtilis 168 [4] = experiment: as above
How it was run: as §2

S. aureus DSM 20231 = experiment: as above
How it was run: as §2
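For Bliss interaction score (quartile over a dose matrix) in this document: first quartile when negative (synergy) and third quartile when positive (antagonism).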

CCC[C@@H]1C[C@@H](C(=O)N[C@@H]([C@H]2O[C@H](SC)[C@H](O)[C@@H](O)[C@H]2O)[C@H](C)Cl)N(C)C1 [Clindamycin] + C[C@H]1COc2c(N3CCN(C)CC3)c(F)cc3c(=O)c(C(=O)O)cn1c23 [Levofloxacin]
Conditions	fitness
B. subtilis 168 [2], first compound 0.0625 µg/mL, partner 0.0312 µg/mL	0.041
B. subtilis 168 [2], first compound 0.0625 µg/mL, partner 0.0625 µg/mL	0.038
B. subtilis 168 [2], first compound 0.0625 µg/mL, partner 0.125 µg/mL	0.0416
B. subtilis 168 [2], first compound 0.125 µg/mL, partner 0.0312 µg/mL	0.0414
B. subtilis 168 [2], first compound 0.125 µg/mL, partner 0.0625 µg/mL	0.0486
B. subtilis 168 [2], first compound 0.125 µg/mL, partner 0.125 µg/mL	0.0468
B. subtilis 168 [2], first compound 0.25 µg/mL, partner 0.0312 µg/mL	0.0473
B. subtilis 168 [2], first compound 0.25 µg/mL, partner 0.0625 µg/mL	0.0532
B. subtilis 168 [2], first compound 0.25 µg/mL, partner 0.125 µg/mL	0.0518
S. pneumoniae D39V [1], first compound 0.0125 µg/mL, partner 0.2 µg/mL	0.759
S. pneumoniae D39V [1], first compound 0.0125 µg/mL, partner 0.4 µg/mL	0.736
S. pneumoniae D39V [1], first compound 0.0125 µg/mL, partner 0.8 µg/mL	0.605
S. pneumoniae D39V [1], first compound 0.015 µg/mL, partner 0.1725 µg/mL	0.909
S. pneumoniae D39V [1], first compound 0.015 µg/mL, partner 0.345 µg/mL	0.865
S. pneumoniae D39V [1], first compound 0.015 µg/mL, partner 0.69 µg/mL	0.595
S. pneumoniae D39V [1], first compound 0.025 µg/mL, partner 0.2 µg/mL	0.478
S. pneumoniae D39V [1], first compound 0.025 µg/mL, partner 0.4 µg/mL	0.47
S. pneumoniae D39V [1], first compound 0.025 µg/mL, partner 0.8 µg/mL	0.39
S. pneumoniae D39V [1], first compound 0.03 µg/mL, partner 0.1725 µg/mL	0.822
S. pneumoniae D39V [1], first compound 0.03 µg/mL, partner 0.345 µg/mL	0.759
S. pneumoniae D39V [1], first compound 0.03 µg/mL, partner 0.69 µg/mL	0.546
S. pneumoniae D39V [1], first compound 0.05 µg/mL, partner 0.2 µg/mL	0.235
S. pneumoniae D39V [1], first compound 0.05 µg/mL, partner 0.4 µg/mL	0.189
S. pneumoniae D39V [1], first compound 0.05 µg/mL, partner 0.8 µg/mL	0.15
S. pneumoniae D39V [1], first compound 0.06 µg/mL, partner 0.1725 µg/mL	0.631
S. pneumoniae D39V [1], first compound 0.06 µg/mL, partner 0.345 µg/mL	0.601
S. pneumoniae D39V [1], first compound 0.06 µg/mL, partner 0.69 µg/mL	0.399

fitness, B. subtilis 168 [2], one replicate
Conditions	first compound 0.0039 µg/mL	first compound 0.0078 µg/mL	first compound 0.0156 µg/mL	first compound 0.0625 µg/mL	first compound 0.125 µg/mL	first compound 0.25 µg/mL
partner 0.001 µg/mL	–	–	–	0.715	0.554	0.391
partner 0.002 µg/mL	0.97	0.86	0.833	0.558	0.442	0.338
partner 0.0039 µg/mL	0.968	0.872	0.816	0.648	0.511	0.389
partner 0.0078 µg/mL	0.967	0.854	0.815	–	–	–

Conditions	Bliss interaction score
B. subtilis 168 [4]	0.0326
S. aureus DSM 20231	0.0785
S. aureus Newman	0.0891
S. pneumoniae D39V [3]	0.0885

CCC[C@@H]1C[C@@H](C(=O)N[C@@H]([C@H]2O[C@H](SC)[C@H](O)[C@@H](O)[C@H]2O)[C@H](C)Cl)N(C)C1 [Clindamycin] + C[C@H]1c2cccc(O)c2C(=O)C2=C(O)[C@]3(O)C(=O)C(C(N)=O)=C(O)[C@@H](N(C)C)[C@@H]3[C@@H](O)[C@@H]21 [Doxycycline]
Conditions	fitness
B. subtilis 168 [2], first compound 0.0625 µg/mL, partner 0.04 µg/mL	0.406
B. subtilis 168 [2], first compound 0.0625 µg/mL, partner 0.08 µg/mL	0.0499
B. subtilis 168 [2], first compound 0.125 µg/mL, partner 0.02 µg/mL	0.389
B. subtilis 168 [2], first compound 0.125 µg/mL, partner 0.04 µg/mL	0.164
B. subtilis 168 [2], first compound 0.125 µg/mL, partner 0.08 µg/mL	0.0428
B. subtilis 168 [2], first compound 0.25 µg/mL, partner 0.02 µg/mL	0.293
B. subtilis 168 [2], first compound 0.25 µg/mL, partner 0.04 µg/mL	0.11
B. subtilis 168 [2], first compound 0.25 µg/mL, partner 0.08 µg/mL	0.0404
S. pneumoniae D39V [1], first compound 0.0125 µg/mL, partner 0.0155 µg/mL	0.451
S. pneumoniae D39V [1], first compound 0.0125 µg/mL, partner 0.031 µg/mL	0.35
S. pneumoniae D39V [1], first compound 0.0125 µg/mL, partner 0.062 µg/mL	0.114
S. pneumoniae D39V [1], first compound 0.015 µg/mL, partner 0.0155 µg/mL	0.876
S. pneumoniae D39V [1], first compound 0.025 µg/mL, partner 0.0155 µg/mL	0.28
S. pneumoniae D39V [1], first compound 0.025 µg/mL, partner 0.031 µg/mL	0.245
S. pneumoniae D39V [1], first compound 0.025 µg/mL, partner 0.062 µg/mL	0.078
S. pneumoniae D39V [1], first compound 0.03 µg/mL, partner 0.0155 µg/mL	0.745
S. pneumoniae D39V [1], first compound 0.05 µg/mL, partner 0.0155 µg/mL	0.0637
S. pneumoniae D39V [1], first compound 0.05 µg/mL, partner 0.031 µg/mL	0.0376
S. pneumoniae D39V [1], first compound 0.05 µg/mL, partner 0.062 µg/mL	0.073
S. pneumoniae D39V [1], first compound 0.06 µg/mL, partner 0.0155 µg/mL	0.577

fitness, one replicate
Conditions	partner 0.003875 µg/mL	partner 0.00775 µg/mL	partner 0.02 µg/mL	partner 0.031 µg/mL	partner 0.04 µg/mL	partner 0.062 µg/mL	partner 0.08 µg/mL
B. subtilis 168 [2], first compound 0.0039 µg/mL	–	–	0.97	–	0.891	–	0.677
B. subtilis 168 [2], first compound 0.0078 µg/mL	–	–	0.831	–	0.781	–	0.515
B. subtilis 168 [2], first compound 0.0156 µg/mL	–	–	0.824	–	0.743	–	0.235
S. pneumoniae D39V [1], first compound 0.015 µg/mL	0.934	0.931	–	0.803	–	0.567	–
S. pneumoniae D39V [1], first compound 0.03 µg/mL	0.778	0.777	–	0.588	–	0.359	–
S. pneumoniae D39V [1], first compound 0.06 µg/mL	0.714	0.743	–	0.405	–	0.163	–

Conditions	Bliss interaction score
B. subtilis 168 [4]	-0.184
S. aureus DSM 20231	-0.0562
S. aureus Newman	-0.135
S. pneumoniae D39V [3]	-0.151

O=C(O[C@@H]1Cc2c(O)cc(O)cc2O[C@@H]1c1cc(O)c(O)c(O)c1)c1cc(O)c(O)c(O)c1 [EGCG] + CO[C@@H]1[C@@H](OC(N)=O)[C@@H](O)[C@H](Oc2ccc3c(O)c(NC(=O)c4ccc(O)c(CC=C(C)C)c4)c(=O)oc3c2C)OC1(C)C [Novobiocin]
fitness, B. subtilis 168 [2]
Conditions	first compound 6.25 µg/mL	first compound 12.5 µg/mL	first compound 25 µg/mL
partner 0.0125 µg/mL	0.968	0.643	0.253
partner 0.025 µg/mL	0.93	0.568	0.234
partner 0.05 µg/mL	0.9	–	0.29

fitness, B. subtilis 168 [2], one replicate
Conditions	partner 0.1 µg/mL	partner 0.125 µg/mL	partner 0.2 µg/mL	partner 0.25 µg/mL	partner 0.5 µg/mL
first compound 6.25 µg/mL	0.949	0.92	0.896	0.875	0.563
first compound 12.5 µg/mL	0.756	0.69	0.759	0.522	0.194
first compound 25 µg/mL	0.546	0.213	0.541	0.223	0.207

Conditions	Bliss interaction score
B. subtilis 168 [4]	-0.0765
S. aureus DSM 20231	0.0574
S. aureus Newman	0.074
S. pneumoniae D39V [3]	-0.0624
